Experimental data from PMC9046087, “Structural basis of tethered agonism of the adhesion GPCRs ADGRD1 and ADGRF1” (Nature, 2022).
Positions count from the first letter of the chain named. Like-named read-outs stand apart in the source and are kept apart here. Ends that are not written are not given here.

Tests used:
Test in all cases: BRET assay using TRUPATH biosensors, Gi activation of ADGRF1
Type in all cases: cell-based
ADGRF1 [1] = biological target: T1, ADGRF1 (Homo sapiens, UniProt Q5T601, L682A); settings: ADGRF1 L682^3.54bA
T1 construct: Flag (N); expressed in transfected cells; host or cells: HEK293F
Outline: (§1)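 HEK293F cells transiently co-transfected with wild-type or mutant receptor, Gα-RLuc8 (GαsS for Gs, Gαi1 for Gi), Gβ3 and Gγ9-GFP2 at 2:1:1:1. After 30 min at 37 °C and coelenterazine 400a, cells stimulated with synthetic stalk peptide. BRET = GFP2/RLuc8 emission, last of five readings.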

ADGRF1 [2] = biological target: T2, ADGRF1 (Homo sapiens, UniProt Q5T601)
T2 construct: Flag (N); expressed in transfected cells; host or cells: HEK293F
T2 sequence (Q5T601 20-910): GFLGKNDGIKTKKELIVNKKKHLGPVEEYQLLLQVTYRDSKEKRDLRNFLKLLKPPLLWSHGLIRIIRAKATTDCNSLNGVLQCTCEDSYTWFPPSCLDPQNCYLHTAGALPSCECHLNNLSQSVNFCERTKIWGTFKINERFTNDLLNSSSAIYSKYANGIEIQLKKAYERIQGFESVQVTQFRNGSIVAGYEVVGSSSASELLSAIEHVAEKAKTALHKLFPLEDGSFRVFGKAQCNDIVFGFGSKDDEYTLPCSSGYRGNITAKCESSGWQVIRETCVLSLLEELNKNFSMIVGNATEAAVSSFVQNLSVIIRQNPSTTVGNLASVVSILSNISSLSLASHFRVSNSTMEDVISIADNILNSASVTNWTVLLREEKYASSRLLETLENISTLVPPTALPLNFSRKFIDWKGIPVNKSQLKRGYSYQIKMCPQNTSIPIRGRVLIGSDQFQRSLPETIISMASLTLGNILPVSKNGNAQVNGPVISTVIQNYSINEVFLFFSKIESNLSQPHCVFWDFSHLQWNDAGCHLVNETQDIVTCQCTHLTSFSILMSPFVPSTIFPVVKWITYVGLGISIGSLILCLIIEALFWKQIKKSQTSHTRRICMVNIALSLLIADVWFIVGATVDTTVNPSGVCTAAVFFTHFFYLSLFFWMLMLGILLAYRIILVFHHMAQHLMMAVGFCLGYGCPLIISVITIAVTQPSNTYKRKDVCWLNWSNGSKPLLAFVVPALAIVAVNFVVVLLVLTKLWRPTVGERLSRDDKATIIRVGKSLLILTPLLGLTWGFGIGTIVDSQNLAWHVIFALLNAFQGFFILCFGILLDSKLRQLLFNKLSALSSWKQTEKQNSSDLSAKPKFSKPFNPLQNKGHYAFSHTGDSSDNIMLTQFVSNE
Outline: as §1

ADGRF1 [3] = biological target: T3, ADGRF1 (Homo sapiens, UniProt Q5T601, L800A); settings: ADGRF1 L800^6.49bA
T3 construct: Flag (N); expressed in transfected cells; host or cells: HEK293F
Outline: as §1

ADGRF1 [4] = biological target: T4, ADGRF1 (Homo sapiens, UniProt Q5T601, R623A); settings: ADGRF1 R623^2.46bA
T4 construct: Flag (N); expressed in transfected cells; host or cells: HEK293F
T4 sequence (Q5T601 20-910 R623A): T2 sequence (Q5T601 20-910) with R604A
Outline: as §1

ADGRF1 [5] = biological target: T5, ADGRF1 (Homo sapiens, UniProt Q5T601, V732A); settings: ADGRF1 V732^ECL2A, n = 3
T5 construct: Flag (N); expressed in transfected cells; host or cells: HEK293F
Outline: as §1

[6] = n = 3, read-out: pEC50 (mean ± s.e.m.) (converted)

T3 sequence (Q5T601 20-910 L800A): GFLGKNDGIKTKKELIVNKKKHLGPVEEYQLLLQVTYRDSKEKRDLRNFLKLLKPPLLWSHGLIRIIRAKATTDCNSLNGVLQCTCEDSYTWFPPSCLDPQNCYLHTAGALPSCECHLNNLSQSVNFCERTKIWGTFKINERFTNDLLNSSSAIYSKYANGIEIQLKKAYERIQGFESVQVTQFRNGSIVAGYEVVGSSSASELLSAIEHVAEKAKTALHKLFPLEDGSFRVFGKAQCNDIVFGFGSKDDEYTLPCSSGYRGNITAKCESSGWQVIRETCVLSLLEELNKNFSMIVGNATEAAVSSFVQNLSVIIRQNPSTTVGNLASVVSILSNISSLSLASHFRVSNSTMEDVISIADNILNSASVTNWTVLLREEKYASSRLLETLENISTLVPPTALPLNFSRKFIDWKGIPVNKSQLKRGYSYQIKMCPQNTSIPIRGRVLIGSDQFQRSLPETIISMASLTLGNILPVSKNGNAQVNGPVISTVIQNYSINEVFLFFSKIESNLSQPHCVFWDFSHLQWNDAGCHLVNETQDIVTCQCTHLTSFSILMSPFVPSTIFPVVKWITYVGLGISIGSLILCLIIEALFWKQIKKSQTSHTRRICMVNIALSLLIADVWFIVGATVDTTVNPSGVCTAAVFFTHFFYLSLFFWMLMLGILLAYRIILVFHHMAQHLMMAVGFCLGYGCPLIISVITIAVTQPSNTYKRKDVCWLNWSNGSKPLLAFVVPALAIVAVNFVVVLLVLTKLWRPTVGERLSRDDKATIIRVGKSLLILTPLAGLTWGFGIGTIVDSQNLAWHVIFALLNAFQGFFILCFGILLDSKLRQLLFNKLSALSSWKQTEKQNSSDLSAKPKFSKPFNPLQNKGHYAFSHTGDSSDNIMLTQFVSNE
T1 sequence (Q5T601 20-910 L682A): as the sequence (Q5T601 20-910 L800A) above, with L663A, A781L counted along it
T5 sequence (Q5T601 20-910 V732A): as the sequence (Q5T601 20-910 L800A) above, with V713A, A781L counted along it

Emax (mean ± s.e.m.) (ADGRF1 [1]; n = 3): 79 ± 12 % of WT
EC50 (ADGRF1 [1]; [6]): 269 nM
Emax (mean ± s.e.m.) (ADGRF1 [2]; ADGRF1 Construct 1 (structure construct), n = 4): 90 ± 13 % of WT
EC50 (ADGRF1 [2]; ADGRF1 Construct 1 (structure construct), n = 4, read-out: pEC50 (mean ± s.e.m.) (converted)): 100 nM
Emax (mean ± s.e.m.) (ADGRF1 [2]; ADGRF1 WT, n = 30): 100 ± 3 % of WT
EC50 (ADGRF1 [2]; ADGRF1 WT, n = 30, read-out: pEC50 (mean ± s.e.m.) (converted)): 61.7 nM
Emax (mean ± s.e.m.) (ADGRF1 [3]; n = 3): 105 ± 8 % of WT
EC50 (ADGRF1 [3]; [6]): 257 nM
Emax (mean ± s.e.m.) (ADGRF1 [4]; n = 3): 120 ± 8 % of WT
EC50 (ADGRF1 [4]; [6]): 447 nM
EC50 (ADGRF1 [5]): 1950 nM
Emax (mean ± s.e.m.) (ADGRF1 [5]): 73 ± 13 % of WT
Sequence: TSFSILMSPFVP [pF1]
